The values below come from ChEMBL document CHEMBL5244223, “l,8-Naphthalimide based DNA intercalators and anticancer agents. A systematic review from 2007 to 2017” (Eur J Med Chem, 2018).

The test system of one data set is A549. Nature of the data set: Cytotoxicity against human A549 cells assessed as inhibition of cell growth incubated for 48 hrs by MTT assay. The class given is functional, cell-based. The conditions noted are these: A549, 48 h.
Data set [1] has as its system HeLa. Nature of the data set: Cytotoxicity against human HeLa cells assessed as inhibition of cell growth incubated for 48 hrs by MTT assay. The class given is functional, cell-based.
The subject of a further data set is K562. In words: Cytotoxicity against human K562 cells assessed as inhibition of cell growth incubated for 48 hrs by MTT assay. The following applies: K562, 48 h. Format: functional, cell-based.
The next data set relates to CCRF-CEM. Nature of the data set: Antiproliferative activity against human CEM cells assessed as inhibition of cell proliferation incubated for 48 hrs by coulter counter assay. The class given is functional, cell-based.
The test system of data set [2] is HeLa. In words: Antiproliferative activity against human HeLa cells assessed as inhibition of cell proliferation incubated for 48 hrs by coulter counter assay. Format: functional, cell-based.
A short description of data set [3]: Antiproliferative activity against human HMEC-1 cells assessed as inhibition of cell proliferation incubated for 48 hrs by coulter counter assay. The class given is toxicity, cell-based.
Another data set has as its system L1210. In words: Antiproliferative activity against mouse L1210 cells assessed as inhibition of cell proliferation incubated for 48 hrs by coulter counter assay. Format: functional, cell-based. The conditions noted are these: L1210, 48 h.
The subject of a further data set is Escherichia coli. In words: Antibacterial activity against Escherichia coli MTCC 443 assessed as inhibition of bacterial growth by agar well diffusion assay. Format: functional.
A further data set concerns Calf thymus DNA. Nature of the data set: Binding affinity to calf thymus DNA assessed as DNA intercalation by measuring change in melting temperature by thermal denaturation assay. The class given is nucleic-acid assay. The conditions noted are these: Bos taurus.
The next data set concerns Pseudomonas aeruginosa. Nature of the data set: Antibacterial activity against Pseudomonas aeruginosa MTCC 741 assessed as inhibition of bacterial growth by agar well diffusion assay. The class given is functional.
The test system of the next data set is Staphylococcus aureus. Nature of the data set: Antibacterial activity against Staphylococcus aureus MTCC 96 assessed as inhibition of bacterial growth by agar well diffusion assay. Format: functional.
The subject of data set [4] is Staphylococcus epidermidis. In words: Antibacterial activity against Staphylococcus epidermidis MTCC 435 assessed as inhibition of bacterial growth by agar well diffusion assay. Format: functional.

≈ marks a conversion by molar mass, not a printed value.

For `CN(C)CCN1C(=O)c2cccc3cc(NC(=O)CN)cc(c23)C1=O`, the figures for the IC50 in the data set on A549, in the data set on HeLa [1] and in the data set on K562 were 4.7 µM, 21.5 µM and 8.5 µM, respectively.
For the compound `CCOP(=O)(CCCn1cc(CN2C(=O)c3cccc4cccc(c34)C2=O)nn1)OCC`, the IC50 in the data set on CCRF-CEM, with HeLa [2] and in the data set with L1210 was more than 250 µM each time. In addition, the IC50 at 48 h in data set [3] is more than 250 µM.
With `CN(C)CCN1C(=O)c2cccc3cc(NC(=O)CCCNC(=O)C(Cl)Cl)cc(c23)C1=O`, the IC50 in the data set with A549 was determined as 4.7 µM; in the data set with HeLa [1] it was 21.5 µM; in the data set with K562, 8.5 µM.
Consider `CCOP(=O)(CCOCn1cc(CN2C(=O)c3cccc4c(Br)ccc(c34)C2=O)nn1)OCC`, for which the IC50 in the data set on CCRF-CEM, in the data set on HeLa [2] and in the data set with L1210 was more than 250 µM throughout. Besides, the IC50 at 48 h in [3] was more than 250 µM.
In the case of `CCOP(=O)(CCCCn1cc(CN2C(=O)c3cccc4cc([N+](=O)[O-])cc(c34)C2=O)nn1)OCC`, the IC50 in the data set on CCRF-CEM, with HeLa [2] and with L1210 was more than 250 µM throughout. Besides, the IC50 at 48 h in data set [3] is more than 250 µM.
As for `CN(C)CCN1C(=O)c2cccc3cc(NC(=O)CCNC(=O)C(Cl)Cl)cc(c23)C1=O`, the IC50 in the data set with A549 is 4.7 µM; with HeLa [1], 21.5 µM; with K562, 8.5 µM.
With `CCOP(=O)(CCCCn1cc(CN2C(=O)c3cccc4cccc(c34)C2=O)nn1)OCC`, the IC50 in the data set with CCRF-CEM, in the data set on HeLa [2] and with L1210 was more than 250 µM throughout. The IC50 at 48 h in data set [3] is more than 250 µM.
On to `CCOP(=O)(CC(=O)NCn1cc(CN2C(=O)c3cccc4cccc(c34)C2=O)nn1)OCC`, for which the IC50 in the data set on CCRF-CEM, in the data set on HeLa [2] and in the data set on L1210 was more than 250 µM each time. The IC50 at 48 h in data set [3] was more than 250 µM.
`CN(C)CCN1C(=O)c2cccc3cc(NC(=O)CNC(=O)C(Cl)Cl)cc(c23)C1=O`: the IC50 stood at 4.7 µM with A549, 21.5 µM in the data set on HeLa [1] and 8.5 µM with K562.
As for `CN(C)CCN1C(=O)c2cccc3cc(NC(=O)CCCN)cc(c23)C1=O`, the IC50 amounted to 4.7 µM in the data set on A549, 21.5 µM in the data set with HeLa [1] and 8.5 µM in the data set on K562.
For the compound `CCOP(=O)(Cn1cc(CN2C(=O)c3cccc4c(Br)ccc(c34)C2=O)nn1)OCC`, the IC50 with CCRF-CEM, with HeLa [2] and in the data set with L1210 was more than 250 µM each time. Moreover, the IC50 at 48 h in data set [3] is more than 250 µM.
For the compound `O=C1c2cccc3cccc(c23)C(=O)N1c1nc(-c2cc3cc(Cl)ccc3oc2=O)cs1`, the MIC (with Escherichia coli; with Pseudomonas aeruginosa; in the data set with Staphylococcus aureus; in data set [4]) was 18.8 µg/mL (≈ 40.9 µM) in each case. In addition, the ΔTm in the data set with Calf thymus DNA is 0.1 °C.
Take `CCOP(=O)(CCOCn1cc(CN2C(=O)c3cccc4cc([N+](=O)[O-])cc(c34)C2=O)nn1)OCC`: the IC50 in the data set on CCRF-CEM, in the data set with HeLa [2] and in the data set on L1210 was more than 250 µM each time. The IC50 at 48 h in data set [3] is more than 250 µM.
For the compound `CCOP(=O)(CC(=O)NCn1cc(CN2C(=O)c3cccc4cc([N+](=O)[O-])cc(c34)C2=O)nn1)OCC`, the IC50 in the data set on CCRF-CEM, with HeLa [2] and with L1210 was more than 250 µM each time. Moreover, the IC50 at 48 h in data set [3] was more than 250 µM.
Take `O=C1c2cccc3cccc(c23)C(=O)N1c1nc(-c2cc3ccccc3oc2=O)cs1`: the MIC (with Escherichia coli; with Pseudomonas aeruginosa; in the data set with Staphylococcus aureus; in data set [4]) was 18.8 µg/mL (≈ 44.2 µM) in each case. Besides, the ΔTm in the data set with Calf thymus DNA worked out at 0.1 °C.
As to `O=C1c2ccc3c4c(ccc(c24)C(=O)N1c1nc(-c2cc4cc(Cl)ccc4oc2=O)cs1)C(=O)N(c1nc(-c2cc4cc(Cl)ccc4oc2=O)cs1)C3=O`, the MIC (in the data set on Escherichia coli; in the data set with Pseudomonas aeruginosa; in the data set with Staphylococcus aureus; in data set [4]) was 18.8 µg/mL (≈ 23.7 µM) in each case. The ΔTm in the data set on Calf thymus DNA came to 24.3 °C.
As for `CCOP(=O)(CCn1cc(CN2C(=O)c3cccc4c(Br)ccc(c34)C2=O)nn1)OCC`, the IC50 in the data set on CCRF-CEM, in the data set on HeLa [2] and with L1210 was more than 250 µM throughout. In addition, the IC50 at 48 h in data set [3] was more than 250 µM.
`O=C1c2cccc3cccc(c23)C(=O)N1c1nc(-c2cc3cc(Br)cc(Br)c3oc2=O)cs1`: the MIC (in the data set with Escherichia coli; in the data set on Pseudomonas aeruginosa; in the data set on Staphylococcus aureus; in [4]) was 18.8 µg/mL (≈ 32.2 µM) throughout. Also, the ΔTm with Calf thymus DNA amounted to 0.1 °C.
Turning to `O=C1c2ccc3c4c(ccc(c24)C(=O)N1c1nc(-c2cc4cc(Cl)cc(Cl)c4oc2=O)cs1)C(=O)N(c1nc(-c2cc4cc(Cl)cc(Cl)c4oc2=O)cs1)C3=O`, the MIC (in the data set with Escherichia coli; with Pseudomonas aeruginosa; in the data set on Staphylococcus aureus; in data set [4]) was 18.8 µg/mL (≈ 21.8 µM) each time. For the same compound, the ΔTm with Calf thymus DNA was determined as 0.1 °C.
